According to patent US9468670B2, “Melatonin-based treatment and diagnosis of bile duct disease” (Texas A&M University System, priority 2011, dated 2016):

Key:
[1] = test system: cholangiocytes; assay: Biliary proliferation (PCNA, IBDM) and apoptosis (TUNEL) in Morpholino-treated rats; type: in vivo, rat; conditions: normal rats, 1 mg/Kg BW/day for 1 week via portal vein catheter
Method: (§1) In separate experiments, normal rats treated with Vivo-Morpholino sequences of AANAT (5′-[…] (SEQ ID NO:1), to reduce the biliary expression of AANAT) or Morpholino mismatched (5′-[…] (SEQ ID NO:2)) (Gene Tools LCC) (1 mg/Kg BW/day) for 1 week via an implanted portal vein catheter. Serum, liver tissue, cholangiocytes, kidney, spleen, small intestine, stomach and heart were collected. Since our goal was to knock-down AANAT expression in the liver without inhibiting AANAT expression in other organs, we used a lower dose (1 mg/Kg/day) of Vivo-Morpholino than that described in the original study (3.0 mg/kg/day (Arora et al., 2002). This approach minimizes the amount of Vivo-Morpholino that circulates outside of the liver after slow infusion into the portal vein. See below for the surgical procedure for the implantation of the portal vein catheter by which AANAT Vivo-Morpholino or Morpholino mismatched was administered.
(§2) Biliary proliferation was determined by measurement of the percentage of PCNA-positive cholangiocytes by immunohistochemistry, and intrahepatic bile duct mass (IBDM) by immunohistochemistry for CK-19 (Mancinelli et al., 2010). Biliary apoptosis was evaluated by semiquantitative terminal deoxynucleotidyltransferase biotin-dUTP nick-end labeling (TUNEL) kit (Chemicon International, Inc., Temecula, Calif.) (Mancinelli et al., 2010). IBDM was determined as the area occupied by CK-19 positive-bile duct/total area×100 (Mancinelli et al., 2010). The morphological changes/damage in liver, spleen, kidney, heart, stomach, and small intestine were evaluated from AANAT Vivo-Morpholino- or mismatch-treated rats by H&E staining. The serum levels of the transaminases, glutamate pyruvate transaminases (SGPT) and glutamic oxaloacetic transaminase (SGOT), alkaline phosphatase (ALP) and total bilirubin were evaluated using a Dimension RxL Max Integrated Chemistry system (Dade Behring Inc., Deerfield Ill.), Chemistry Department, Scott & White.

[2] = rat, in vivo, 1 mg/kg/day
Method: as §1, §2

[3] = Melatonin serum levels by ELISA in normal and BDL rats; type: in vivo; conditions: male, Fischer 344, rat, oral, 20 mg/L in drinking water, tap water containing melatonin (20 mg/L) for 1 week
Method: Male 344 Fischer rats (150-175 g) were purchased from Charles River (Wilmington, Mass.) and kept in a temperature-controlled environment (22° C.) with 12:12 hr light/dark cycles. Animals were fed ad libitum and had free access to food and drinking water. The studies were performed in normal rats, and in rats that immediately after bile duct ligation (BDL, for collection of serum, liver tissues and cells) (Alpini et al., 1988) or bile duct incannulation (BDI, for bile collection) (Alpini et al., 1988) had ad libitum access to tap water or tap water containing melatonin (20 mg/L in drinking water that corresponds to approximately an intake of melatonin of 2 mg/g BW per day per rat) (Anisimov et al., 2003) for 1 week. Before each surgical procedure, animals were anesthetized with sodium pentobarbital (50 mg/kg BW, IP).
Melatonin serum levels were measured by commercially available ELISA kits according to the instructions provided by the vendor (Genway, San Diego, Calif.).

[4] = test system: PER1, BMAL1, CRY1, CLOCK, MT1 and MT2; assay: Expression of clock genes and MT1/MT2 in cholangiocytes from treated rats (real-time PCR, FACS); type: in vivo, rat
Method: Male 344 Fischer rats (150-175 g) were purchased from Charles River (Wilmington, Mass.) and kept in a temperature-controlled environment (22° C.) with 12:12 hr light/dark cycles. Animals were fed ad libitum and had free access to food and drinking water. […] Before each surgical procedure, animals were anesthetized with sodium pentobarbital (50 mg/kg BW, IP). All animal experiments were performed in accordance with a protocol approved by the Scott and White and Texas A&M Health Science Center Institutional Animal Care and Use Committee and conform to the Guide for the Care and Use of Laboratory Animals published by the US National Institutes of Health (NIH Publication No. 85-23, revised 1996). In all animals, wet liver weight, body weight, wet liver weight to body weight ratio, and an index of liver cell growth including cholangiocytes were measured ([…] et al., 1988). […] FACS analysis was performed as described (Onori et al., 2010) using a C6 flow cytometer and analyzed by CFlow Software (Accuri Cytometers Inc. Ann Arbor, Mich.). […] The relative quantity of the selected protein (mean selected protein fluorescence) was expressed as mean FL1-A (samples)/mean FL-1A (secondary antibodies only). […] Data were expressed as relative mRNA levels ±SEM of the selected gene to glyceraldehyde-3-phosphate dehydrogenase (GAPDH) ratio.

[5] = test system: miR-141; assay: miRNA microarray expression profiling in BDL rat liver; conditions: reduced in BDL; after melatonin treatment in vivo
From the text: Background: microRNAs (miRNAs) are small non-coding RNAs that have been implicated in the pathology of cholestatic liver injuries. After bile duct ligation (BDL), there is enhanced biliary proliferation and intrahepatic bile duct mass (IBDM). The inventors have previously shown that: i) cholangiocytes produce melatonin and express Clock genes and that ii) melatonin inhibits in vitro and in vivo the growth of cholangiocytes and cholangiocarcinoma cell lines by modulation of the CLOCK genes. Thus, in certain aspects miRNA regulates the expression of CLOCK genes and subsequently alters the proliferation of cholangiocytes after BDL. Methods: miRNA expression in normal and BDL rat liver was evaluated using hybridization based microRNA microarray. Mouse cholangiocytes (NMCs) were used for the experiments in vitro. mRNA expression was quantitated by real-time PCR analysis and protein expression was detected by Western blot. Results: […] Bioinformatics and dual-luciferase reporter assays identified Clock and cryptochrome 1 (Cry1), a blue light-dependent regulator of the circadian feedback loop, as the direct targets of miR-141. […] Targeting of […] during cholestatic liver injuries provides an important therapeutic strategy in the regulation of cholangiocytes proliferation through the regulation of Clock and Cry 1 expression.

[6] = test system: miR-34a; assay: miRNA expression in melatonin treated xenograft tumor tissues; conditions: melatonin treatment in vivo
Method: Methods: miRNA expression in normal human cholangiocytes (HiBECs), and the CCA cell lines Mz-ChA-1 and TFK cells, as well as melatonin treated xenograft tumor tissues were evaluated using a hybridization-based miRNA microarray. The expression of selected mature miRNAs was also assessed by real-time PCR. The effect of selected miRNAs on cell growth and invasion was assessed using miRNA modulators to alter cellular expression. Cell migration and invasion through a matrigel layer was quantitated using commercial assays. BCL-2, period homolog 1 (PER1) and tissue inhibitor of metalloproteinases 3 (TIMP-3) mRNA expression was quantitated by real-time PCR analysis.

Row | concentration at 1 week ([3]; BDL rats) [ng/mL] | concentration at 1 week ([3]; normal rats) [ng/mL] | Compound | % IBDM [1] [%] | % PCNA-positive cholangiocytes [1] [%] | % apoptotic cholangiocytes [1] [%] | ALP [2] [Units/L] | SGOT [2] [Units/L] | SGPT [2] [Units/L] | Total bilirubin [2] [mg/L] | Expression of MT1 and MT2 in cholangiocytes ([4]; BDL rats treated in vivo vs. regular tap water) | Expression of PER1, BMAL1, CRY1 and CLOCK in cholangiocytes ([4]; normal and BDL rats treated in vivo vs. control cholangiocytes) | miR-141 expression in BDL rat liver [5] | miR-34a expression in Mz-ChA-1 xenograft tumor [6]
1 |  |  | AANAT Vivo-Morpholino: Vivo-Morpholino sequence of AANAT 5′-GTTCCCCAGCTTTGGAAGTGGTCCC (SEQ ID NO:1), to reduce the biliary expression of AANAT (all phosphorodiamidate morpholino (PMO); Vivo-Morpholino delivery moiety attached, position not given here, further chemistry not fully specified) | 0.45 ± 0.10 | 8.98 ± 0.6 | <5 | 230.2 ± 5.2 | 148.5 ± 22.5 | 72.25 ± 0.2 | <0.1 |  |  |  | 
2 | 0.165 ± 0.0668 | 0.14 ± 0.0127 | COc1ccc2[nH]cc(CCNC(C)=O)c2c1 [melatonin] |  |  |  |  |  |  |  | decreased | decreased | recovered | significant reduction
